Patent US5567692A, “9-[(substituted glycyl) amido)]-6-demethyl-6-deoxytetracyclines” (priority 1995, dated 1996)
≈ marks a conversion by molar mass, not a printed value. Counter-ions that a name gives are not always drawn. Like-named read-outs stand apart in the source and are kept apart here.

Assays:
Assay type in all cases: cell-based
E. coli UBMS 88-1 Tet B = test: microbe, parasite or virus in culture; details: Escherichia coli, UBMS881TETB, 18 h
[1] = system: E. coli MC 4100 Tet sens.; test: MIC, agar dilution; details: Escherichia coli, 18 h
E. coli PRP1 Tet A = test: microbe, parasite or virus in culture; details: Escherichia coli, PRP1TETA, 18 h
[2] = system: E. coli MC 4100 TNIOC Tet B; test: microbe, parasite or virus in culture; details: Escherichia coli, 18 h
E. coli J3272 Tet C = test: microbe, parasite or virus in culture; details: Escherichia coli, J3272TETC, 18 h
E. coli UBMS 89-1 Tet M = test: microbe, parasite or virus in culture; details: Escherichia coli, UBMS891TETM, 18 h
[3] = system: E. coli UBMS 89-2 Tet sens.; test: MIC, agar dilution; details: Escherichia coli, 18 h
E. coli J2175 = test: MIC, agar dilution; details: Escherichia coli, 18 h, read-out: MIC
E. coli BAJ9003 IMP MUT = test: microbe, parasite or virus in culture; details: Escherichia coli, BAJ9003IMPMUT, 18 h
E. coli UBMS 90-4 Tet M = test: microbe, parasite or virus in culture; details: Escherichia coli, UBMS904TETM, 18 h
E. coli UBMS 90-5 = test: microbe, parasite or virus in culture; details: Escherichia coli, UBMS905, 18 h, E. coli UBMS 90-5; read-out: MIC
E. coli #311 (MP) = test: MIC, agar dilution; details: Escherichia coli, 18 h
E. coli ATCC 25922 = test: MIC, agar dilution; details: Escherichia coli, ATCC25922, 18 h
E. coli J3272 Tet D = test: microbe, parasite or virus in culture; details: Escherichia coli, J3272TETD, 18 h
S. marcescens FPOR 8733 = test: MIC, agar dilution; details: Serratia marcescens, FPOR8733, 18 h
[4] = system: X. maltophilia NEMC 87210; test: MIC, agar dilution; details: Stenotrophomonas maltophilia, NEMC87210, 18 h
[5] = system: Ps. aeruginosa ATCC 27853; test: MIC, agar dilution; details: Pseudomonas aeruginosa, ATCC27853, 18 h
S. aureus NEMC 8769 = test: MIC, agar dilution; details: Staphylococcus aureus, NEMC8769, 18 h
S. aureus UBMS 88-4 = test: MIC, agar dilution; details: Staphylococcus aureus, UBMS884, 18 h
[6] = system: S. aureus UBMS 88-5 Tet M; test: microbe, parasite or virus in culture; details: Staphylococcus aureus, UBMS885TETM, 18 h
[7] = system: S. aureus UBMS 88-7 Tet K; test: microbe, parasite or virus in culture; details: Staphylococcus aureus, UBMS887TETK, 18 h
[8] = system: S. aureus UBMS 90-1 Tet M; test: microbe, parasite or virus in culture; details: Staphylococcus aureus, UBMS901TETM, 18 h
S. aureus UBMS 90-3 = test: MIC, agar dilution; details: Staphylococcus aureus, UBMS903, 18 h, S. aureus UBMS 90-3
[9] = system: S. aureus UBMS 90-2 Tet M; test: microbe, parasite or virus in culture; details: Staphylococcus aureus, UBMS902TETM, 18 h
S. aureus IVES 2943 = test: MIC, agar dilution; details: Staphylococcus aureus, IVES2943, 18 h
S. aureus ROSE (MP) = test: MIC, agar dilution; details: Staphylococcus aureus, 18 h
S. aureus SMITH (MP) = test: MIC, agar dilution; details: Staphylococcus aureus, 18 h
S. aureus IVES 1983 = test: MIC, agar dilution; details: Staphylococcus aureus, IVES1983, 18 h
S. aureus ATCC 29213 = test: MIC, agar dilution; details: Staphylococcus aureus, ATCC29213, 18 h, S. aureus ATCC 29213
[10] = system: S. hemolyticus AVHAH 88-3; test: MIC, agar dilution; details: Streptococcus pyogenes, AVHAH883, 18 h
Enterococcus 12201 = test: MIC, agar dilution; details: Enterococcus, 12201, 18 h
E. faecalis ATCC 29212 = test: MIC, agar dilution; details: Enterococcus faecalis, ATCC29212, 18 h
[11] = Ps. aeruginosa ATCC 27853, read-out: MIC
[12] = E. faecalis ATCC 29212, read-out: MIC
[13] = S. aureus SMITH (MP), read-out: MIC
[14] = Enterococcus 12201, read-out: MIC

Row | Compound | MIC (E. coli UBMS 88-1 Tet B) [µg/mL] | MIC [1] [µg/mL] | MIC (E. coli PRP1 Tet A) [µg/mL] | MIC [2] [µg/mL] | MIC (E. coli J3272 Tet C) [µg/mL] | MIC (E. coli UBMS 89-1 Tet M) [µg/mL] | MIC [3] [µg/mL] | MIC (E. coli J2175) [µg/mL] | MIC (E. coli BAJ9003 IMP MUT) [µg/mL] | MIC (E. coli UBMS 90-4 Tet M) [µg/mL] | MIC (E. coli UBMS 90-5) [µg/mL] | MIC (E. coli #311 (MP)) [µg/mL] | MIC (E. coli ATCC 25922) [µg/mL] | MIC (E. coli J3272 Tet D) [µg/mL] | MIC [4] [µg/mL] | MIC (S. aureus UBMS 88-4) [µg/mL] | MIC [6] [µg/mL] | MIC [7] [µg/mL] | MIC [8] [µg/mL] | MIC (S. aureus ROSE (MP)) [µg/mL] | also measured
1 | CC(C(=O)Nc1ccc2c(c1O)C(=O)C1=C(O)[C@]3(O)C(=O)C(C(N)=O)=C(O)[C@@H](N(C)C)C3CC1C2)N(C)C (stereo partly drawn) [B, [4S-(4alpha,12aalpha)]-4-(Dimethylamino)-9-[[2-(dimethylamino)-1-oxopropyl]amino]-1,4,4a,5,5a,6,11,12a-octahydro-3,10,12,12a-tetrahydroxy-1,11-dioxo-2-naphthacenecarboxamide dihydrochloride] | 1 | 0.25 | 2 | 0.5 | 1 | 0.5 | 1 | 1 | 0.25 | 0.5 | 0.5 | 0.5 | 0.5 | 0.5 | 2 | 0.25 | 0.5 | 1 | 0.5 | 4 | MIC (S. marcescens FPOR 8733): 8 µg/mL; MIC [5, 11]: 32 µg/mL; MIC (S. aureus NEMC 8769; read-out: MIC): 0.06 µg/mL; MIC (S. aureus UBMS 90-3; read-out: MIC): 0.06 µg/mL; MIC [9]: 0.25 µg/mL; MIC (S. aureus IVES 2943; S. aureus IVES 2943, read-out: MIC): 1 µg/mL; MIC (S. aureus SMITH (MP)): 0.25 µg/mL; MIC (S. aureus IVES 1983; S. aureus IVES 1983, read-out: MIC): 1 µg/mL; MIC (S. aureus ATCC 29213; read-out: MIC): 0.25 µg/mL; MIC [10]: 1 µg/mL; MIC (Enterococcus 12201): 0.25 µg/mL; MIC (E. faecalis ATCC 29212; [12]): 0.25 µg/mL
2 | CCNCC(=O)Nc1ccc2c(c1O)C(=O)C1=C(O)[C@]3(O)C(=O)C(C(N)=O)=C(O)[C@@H](N(C)C)C3CC1C2 (stereo partly drawn) [E, [4S-(4alpha,12aalpha)]-4-(Dimethylamino)-9-[[(ethylamino)acetyl]amino]-1,4,4a,5,5a,6,11,12a-octahydro-3,10,12,12a-tetrahydroxy-1,11-dioxo-2-naphthacenecarboxamide dihydrochloride] | 0.5 | 0.25 | 2 | 1 | 1 | 0.25 | 0.5 | 0.5 | 0.12 | 0.25 | 0.5 | 0.5 |  | 0.25 | 8 | 0.5 | 0.5 | 8 | 0.5 | > 32 | MIC (E. coli ATCC 25922; read-out: MIC): 0.25 µg/mL; MIC (S. marcescens FPOR 8733; read-out: MIC): 4 µg/mL; MIC [5]: 16 µg/mL; MIC (S. aureus NEMC 8769): 0.12 µg/mL; MIC (S. aureus UBMS 90-3): 0.12 µg/mL; MIC ([9]; S. aureus UBMS 90-2 Tet M): 0.12 µg/mL; MIC (S. aureus IVES 2943): 16 µg/mL; MIC (S. aureus SMITH (MP); [13]): 0.25 µg/mL; MIC (S. aureus IVES 1983): 8 µg/mL; MIC (S. aureus ATCC 29213): 0.5 µg/mL; MIC [10]: 1 µg/mL; MIC (Enterococcus 12201; [14]): 0.25 µg/mL; MIC (E. faecalis ATCC 29212): 0.25 µg/mL
3 | CN(C)CC(=O)Nc1ccc2c(c1O)C(=O)C1=C(O)[C@]3(O)C(=O)C(C(=O)NCN4CCCC4)=C(O)[C@@H](N(C)C)C3CC1C2 (stereo partly drawn) [EE, [4S-(4alpha,12aalpha)]-4-(Dimethylamino)-9-[[(dimethylamino)acetyl]amino]-1,4,4a,5,5a,6,11,12a-octahydro-3,10,12,12a-tetrahydroxy-1,11-dioxo-N-(l-pyrrolidinylmethyl)-2-naphthacenecarboxamide] | 0.5 (≈ 0.837 µM) | 0.12 (≈ 0.201 µM) | 2 (≈ 3.35 µM) | 0.5 (≈ 0.837 µM) | 1 (≈ 1.67 µM) | 0.25 (≈ 0.418 µM) | 0.5 (≈ 0.837 µM) | 0.5 (≈ 0.837 µM) | 0.12 (≈ 0.201 µM) | 0.25 (≈ 0.418 µM) | 0.25 (≈ 0.418 µM) | 0.5 (≈ 0.837 µM) | 0.25 (≈ 0.418 µM) | 0.25 (≈ 0.418 µM) |  | 0.25 (≈ 0.418 µM) | 0.25 (≈ 0.418 µM) | 1 (≈ 1.67 µM) | 0.25 (≈ 0.418 µM) | 8 (≈ 13.4 µM) | MIC (S. marcescens FPOR 8733; read-out: MIC): 4 µg/mL (≈ 6.69 µM); MIC ([4]; X. maltophilia NEMC 87210, read-out: MIC): 2 µg/mL (≈ 3.35 µM); MIC [5, 11]: 16 µg/mL (≈ 26.8 µM); MIC (S. aureus NEMC 8769; read-out: MIC): 0.25 µg/mL (≈ 0.418 µM); MIC (S. aureus UBMS 90-3): 0.12 µg/mL (≈ 0.201 µM); MIC [9]: 0.25 µg/mL (≈ 0.418 µM); MIC (S. aureus IVES 2943): 2 µg/mL (≈ 3.35 µM); MIC (S. aureus SMITH (MP); [13]): 0.25 µg/mL (≈ 0.418 µM); MIC (S. aureus IVES 1983): 2 µg/mL (≈ 3.35 µM); MIC (S. aureus ATCC 29213; read-out: MIC): 0.25 µg/mL (≈ 0.418 µM); MIC ([10]; S. hemolyticus AVHAH 88-3, read-out: MIC): 0.5 µg/mL (≈ 0.837 µM); MIC (Enterococcus 12201; [14]): 0.25 µg/mL (≈ 0.418 µM); MIC (E. faecalis ATCC 29212; [12]): 0.12 µg/mL (≈ 0.201 µM)
